Where two headings read alike, the source gives them in different places.
Experiments:
LC20 siRNA/PN73 complex = LC20 siRNA/PN73 complex (Homo sapiens, UniProt P62807)
Experimental: (§1) In this example, size exclusion chromatography (SEC) coupled with an ultraviolet detector (UV 260nm) and static laser light scattering (LS) detector was used to characterize the physical properties of the LC20 siRNA/PN73 peptide complex in the presence or absence of the organic salt. In addition, the phosphate/nitrogen (P/N) charge ratio for LC20 siRNA/PN73 was calculated.
LC20 siRNA/PN73 aggregation was characterized in the presence or absence of NMDG-glutamate by SEC-UV/LS.

PN73 = PN73 (Homo sapiens, UniProt P62807); assay: SEC-UV/LS: effect of organic salt on PN73 aggregation; format: physicochemical; conditions: 100 mM salt, without LC20 siRNA
PN73, sequence (P62807 13-48): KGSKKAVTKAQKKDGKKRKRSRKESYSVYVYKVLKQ
Experimental: as §1
PN73 in monomeric form is 4 kiloDaltons (kDA); however an intrinsic property of this peptide is to aggregate and form large complexes in solution. An initial study was performed to analyze the physical properties of PN73, without LC20 siRNA, in the presence and absence of 100 mM NMDG-glutamate salt or 9% sorbitol (no salt environment). […] In contrast, in the presence of 100 mM NMDG-glutamate salt, two distinct adjacent UV traces were observed indicating two distinct species of PN73 were present. […] Next, the ability of NMDG-glutamate and other organic salts to reduced PN73 aggregation in the presence of LC20 siRNA was characterized by SEC-UV/LS.

LC20 siRNA/PN73 complex, sequence (P62807 13-48 limits assumed, one chain of several): as the sequence (P62807 13-48) above

Row | Compound | stabilization of LC20 siRNA/PN73 complex in solution (LC20 siRNA/PN73 complex; 1 mM salt) | stabilization of LC20 siRNA/PN73 complex in solution (LC20 siRNA/PN73 complex; 10 mM salt) | stabilization of LC20 siRNA/PN73 complex in solution (LC20 siRNA/PN73 complex; 100 mM salt) | effect on PN73 aggregation (PN73) | stabilization of LC20 siRNA/PN73 complex in solution (LC20 siRNA/PN73 complex; 150 mM salt)
1 | NCCCNCCCCNCCCN [spermine acetate, spermine] | effective LC20 siRNA/PN73 stabilizer | effective LC20 siRNA/PN73 stabilizer | dissociates the LC20 siRNA/PN73 peptide complex |  | 
2 | trimethylethanolamine (Choline) [choline chloride] | may not be suitable as a stabilizer | may not be suitable as a stabilizer | may not be suitable as a stabilizer |  | 
3 | CNC[C@H](O)[C@@H](O)[C@H](O)[C@H](O)CO.N[C@@H](CCC(=O)O)C(=O)O [NMDG-glutamate, N-methyl-D-glucamine (NMDG)] | effective stabilizer | effective stabilizer | effective stabilizer | reduces PN73 aggregation significantly | 
4 | N=C(N)NCCC[C@H](N)C(=O)O [arginine glutamate, arginine] | effective stabilizer | effective stabilizer | effective stabilizer |  | not an effective stabilizer

Reference: patent US20070213257A1, “COMPOSITIONS AND METHODS FOR COMPLEXES OF NUCLEIC ACIDS AND PEPTIDES” (Nastech Pharmaceutical Company Inc., priority 2005, published 2007)
